US11491134B2, “Composition for inhibiting skin cell proliferation and/or anti-inflammation method for inhibiting skin cell proliferation and/or anti-inflammation and method for treating skin diseases and/or inflammatory diseases” (Industrial Technology Research Institute, priority 2019, dated 2022)

Tested on: macrophages, RAW264.7 cells
Test: Inhibition rate on inflammation (anti-inflammatory activity): nitric oxide, Griess reagent, LPS-treated macrophages
Type: cell-based
Conditions: Mus musculus; for inhibition at 1.5625 µM: luteolin 1.5625 μM/0.45 μg/mL; for inhibition at 3.125 µM: luteolin 3.125 μM/0.89 μg/mL; for inhibition at 6.25 µM: luteolin 6.25 μM/1.79 μg/mL; for inhibition at 12.5 µM: luteolin 12.5 μM/3.58 μg/mL; for inhibition at 25 µM: luteolin 25 μM/7.16 μg/mL; for inhibition at 50 µM: luteolin 50 μM/14.31 μg/mL; for inhibition at 0.3125 µM: luteolin 0.3125 μM/0.09 μg/mL; for inhibition at 0.625 µM: luteolin 0.625 μM/0.18 μg/mL; for inhibition at 1.25 µM: luteolin 1.25 μM/0.36 μg/mL; for inhibition at 2.5 µM: luteolin 2.5 μM/0.72 μg/mL; for inhibition at 5 µM: luteolin 5 μM/1.43 μg/mL; for inhibition at 100 µM: luteolin 100 μM/28.62 μg/mL
Experimental: Dimethyl sulfoxide (DMSO) was used as a solvent to prepare apigenin test samples with different concentrations and luteolin test samples with different concentrations. 9 batches of experiments were performed, which respectively were Batch 1 to Batch 9. There were 6 independent experiments in each batch of experiments. In each independent experiment, inhibition rate of an apigenin test sample with a specific concentration on inflammation and inhibition rate of a luteolin test sample with a specific concentration on inflammation were determined, and inhibition rate of a combination of an apigenin test sample with the said specific concentration and a luteolin test sample with the said specific concentration on inflammation was determined. Between the independent experiments, concentrations of apigenin test samples used were different, and concentrations of luteolin test samples used were also different, however, mole ratios or weight ratios of apigenin test samples to luteolin test samples were the same. Moreover, between the batches of experiments, mole ratios or weight ratios of apigenin test samples to luteolin test samples were different. 5×10^4 macrophages, RAW264.7 cells, were inoculated in a 96-well culture plate and then placed in a 37° C. and 5% CO2 incubator for culturing overnight. After overnight culture, the supernatant was removed, and lipopolysaccharide (LPS) (50 ng/mL) and a test sample was added to the cells (refer to Table 2, and the cells of the induced group were treated with lipopolysaccharide and dimethyl sulfoxide while the cells of the control group were only treated with dimethyl sulfoxide) for reaction for 24 hours. Thereafter, the supernatant of each well in the culture plate was transferred to a new culture plate and reacted with Griess reagent (Promega, Cat. No. G2930), respectively, and then the absorbance of each well of the culture plate was determined at 540 nm by a continuous wavelength microplate reader to evaluate the content of nitric oxide (NO), and anti-inflammatory activity was calculated through the following formula: Anti-inflammation=(Induced group540 nm−Experimental group540 nm)/(Induced group540 nm−Control group540 nm) In this experiment, the synergistic effects of apigenin and luteolin were evaluated by CalcuSyn software (BIOSOFT). CalcuSyn software is an analysis software which is commonly used to analyze the drug dosage effect of single drug and multiple drugs at present. CalcuSyn software can be used to analyze drug complex interactions and automatically quantify various phenomena such as synergism and inhibition. CalcuSyn software can process the data of individual drugs and combination drugs with constant-ratio or on-constant-ratio, and can evaluate the interaction of combination drugs by the combination index (CI) (Chou and Talalay, Adv. Enzyme Regul. 22:27-55 (1984) calculated by CalcuSyn software. Calculation formula for the combination index is shown in the following: Combination index=C1/IC1+C2/IC2 C1 and C2 are the respective concentrations of the first compound and the second compound at which the activity of achieving a specific physiological or medical purpose is 50% (or 75%, or 90%) when the first compound and the second compound are analyzed in combination; IC1 and IC2 are the respective concentrations at which the activity of achieving a specific physiological or medical purpose of the first compound and the second compound is 50% (or 75%, or 90%) when the first compound and the second compound are independently analyzed. […]

Which inhibition at 1.5625 µM (RAW264.7, Batch 1) does the source give for `O=c1cc(-c2ccc(O)c(O)c2)oc2cc(O)cc(O)c12` [Luteolin, luteolin] here?
The inhibition at 1.5625 µM was 0.1%.

And the inhibition at 3.125 µM (RAW264.7, Batch 1)?
The inhibition at 3.125 µM was 21.4%.

What about the inhibition at 6.25 µM (RAW264.7, Batch 1) of the same molecule?
The inhibition at 6.25 µM was 37.2%.

And the inhibition at 12.5 µM (RAW264.7, Batch 1)?
Its inhibition at 12.5 µM is 56.3%.

And the inhibition at 25 µM (RAW264.7, Batch 1)?
The inhibition at 25 µM was 84.1%.

What about the inhibition at 50 µM (RAW264.7, Batch 1) of the same molecule?
The inhibition at 50 µM was 99.9%.

What about the inhibition at 0.78 µM (RAW264.7, Batch 2, luteolin 0.78 μM/0.22 μg/mL) of the same molecule?
Its inhibition at 0.78 µM is 0.1%.

What about the inhibition at 1.5625 µM (RAW264.7, Batch 2) of the same molecule?
The inhibition at 1.5625 µM was 5.8%.

What about the inhibition at 3.125 µM (RAW264.7, Batch 2) of the same molecule?
The inhibition at 3.125 µM was 15.4%.

What about the inhibition at 6.25 µM (RAW264.7, Batch 2) of the same molecule?
The inhibition at 6.25 µM was 29.9%.

And the inhibition at 12.5 µM (RAW264.7, Batch 2)?
The inhibition at 12.5 µM was 48.8%.

What about the inhibition at 25 µM (RAW264.7, Batch 2) of the same molecule?
Its inhibition at 25 µM is 75.7%.

What about the inhibition at 0.3125 µM (RAW264.7, Batch 3) of the same molecule?
Its inhibition at 0.3125 µM is 0.1%.

What about the inhibition at 0.625 µM (RAW264.7, Batch 3) of the same molecule?
Its inhibition at 0.625 µM is 0.1%.

What about the inhibition at 1.25 µM (RAW264.7, Batch 3) of the same molecule?
The inhibition at 1.25 µM was 0.1%.

What about the inhibition at 2.5 µM (RAW264.7, Batch 3) of the same molecule?
The inhibition at 2.5 µM was 5.1%.

And the inhibition at 5 µM (RAW264.7, Batch 3)?
The inhibition at 5 µM was 49%.

And the inhibition at 10 µM (RAW264.7, Batch 3, luteolin 10 μM/2.86 μg/mL)?
Its inhibition at 10 µM is 80.3%.

What about the inhibition at 0.15625 µM (RAW264.7, Batch 4, luteolin 0.15625 μM/0.04 μg/mL) of the same molecule?
Its inhibition at 0.15625 µM is 0.1%.

And the inhibition at 0.3125 µM (RAW264.7, Batch 4)?
Its inhibition at 0.3125 µM is 0.1%.

What about the inhibition at 0.625 µM (RAW264.7, Batch 4) of the same molecule?
Its inhibition at 0.625 µM is 0.1%.

And the inhibition at 1.25 µM (RAW264.7, Batch 4)?
The inhibition at 1.25 µM was 0.1%.

What about the inhibition at 2.5 µM (RAW264.7, Batch 4) of the same molecule?
Its inhibition at 2.5 µM is 0.1%.

What about the inhibition at 5 µM (RAW264.7, Batch 4) of the same molecule?
Its inhibition at 5 µM is 35.9%.

And the inhibition at 0.078 µM (RAW264.7, Batch 5, luteolin 0.078 μM/0.02 μg/mL)?
The inhibition at 0.078 µM was 0.1%.

And the inhibition at 0.156 µM (RAW264.7, Batch 5, luteolin 0.156 μM/0.04 μg/mL)?
Its inhibition at 0.156 µM is 0.1%.

And the inhibition at 0.3125 µM (RAW264.7, Batch 5)?
The inhibition at 0.3125 µM was 9.8%.

And the inhibition at 0.625 µM (RAW264.7, Batch 5)?
Its inhibition at 0.625 µM is 3.1%.

And the inhibition at 1.25 µM (RAW264.7, Batch 5)?
Its inhibition at 1.25 µM is 0.5%.

What about the inhibition at 2.5 µM (RAW264.7, Batch 5) of the same molecule?
Its inhibition at 2.5 µM is 16.1%.

What about the inhibition at 3.125 µM (RAW264.7, Batch 6) of the same molecule?
The inhibition at 3.125 µM was 11.1%.

And the inhibition at 6.25 µM (RAW264.7, Batch 6)?
The inhibition at 6.25 µM was 40.8%.

What about the inhibition at 12.5 µM (RAW264.7, Batch 6) of the same molecule?
Its inhibition at 12.5 µM is 67.1%.

And the inhibition at 25 µM (RAW264.7, Batch 6)?
The inhibition at 25 µM was 89.6%.

What about the inhibition at 50 µM (RAW264.7, Batch 6) of the same molecule?
Its inhibition at 50 µM is 99.9%.

What about the inhibition at 100 µM (RAW264.7, Batch 6) of the same molecule?
The inhibition at 100 µM was 99.9%.

What about the inhibition at 3.125 µM (RAW264.7, Batch 7) of the same molecule?
The inhibition at 3.125 µM was 13.3%.

What about the inhibition at 6.25 µM (RAW264.7, Batch 7) of the same molecule?
The inhibition at 6.25 µM was 43.9%.

What about the inhibition at 12.5 µM (RAW264.7, Batch 7) of the same molecule?
The inhibition at 12.5 µM was 70.2%.

And the inhibition at 25 µM (RAW264.7, Batch 7)?
The inhibition at 25 µM was 89.3%.

What about the inhibition at 50 µM (RAW264.7, Batch 7) of the same molecule?
The inhibition at 50 µM was 99.9%.

What about the inhibition at 100 µM (RAW264.7, Batch 7) of the same molecule?
The inhibition at 100 µM was 99.9%.

And the inhibition at 3.125 µM (RAW264.7, Batch 8)?
The inhibition at 3.125 µM was 8.9%.

What about the inhibition at 6.25 µM (RAW264.7, Batch 8) of the same molecule?
Its inhibition at 6.25 µM is 34.4%.

What about the inhibition at 12.5 µM (RAW264.7, Batch 8) of the same molecule?
The inhibition at 12.5 µM was 67.9%.

What about the inhibition at 25 µM (RAW264.7, Batch 8) of the same molecule?
Its inhibition at 25 µM is 90.4%.

And the inhibition at 50 µM (RAW264.7, Batch 8)?
Its inhibition at 50 µM is 99.9%.

What about the inhibition at 100 µM (RAW264.7, Batch 8) of the same molecule?
Its inhibition at 100 µM is 99.9%.

And the inhibition at 1.5625 µM (RAW264.7, Batch 9)?
The inhibition at 1.5625 µM was 4.9%.

What about the inhibition at 3.125 µM (RAW264.7, Batch 9) of the same molecule?
The inhibition at 3.125 µM was 26.5%.

What about the inhibition at 6.25 µM (RAW264.7, Batch 9) of the same molecule?
The inhibition at 6.25 µM was 67%.

And the inhibition at 12.5 µM (RAW264.7, Batch 9)?
The inhibition at 12.5 µM was 87%.

And the inhibition at 25 µM (RAW264.7, Batch 9)?
Its inhibition at 25 µM is 94.2%.

What about the inhibition at 50 µM (RAW264.7, Batch 9) of the same molecule?
Its inhibition at 50 µM is 98.3%.
